Laboratory results reported in PMC9505826, “A Peptide Inhibitor of the Human Cytomegalovirus Core Nuclear Egress Complex” (Pharmaceuticals, 2022).

Experiments:
HCMV AD169 = assay type: cell-based, human cytomegalovirus (HCMV strain AD169); details: for EC50: HFFs infected with HCMV AD169, MOI 0.1, peptides refreshed at 2, 5 and 7 d p.i., viral genome equivalents in supernatants at 8 d p.i. by qPCR, % of DMSO control, ± standard deviation, at least three independent experiments, read-out: EC50, antiviral effect; for effect on HCMV infection (in words): HFFs infected with HCMV AD169, qPCR of supernatants, concentrations up to 10 µM
Method: Primary human foreskin fibroblasts (HFFs) were cultivated in minimal essential medium (MEM). Cell culture media were supplemented with 1× GlutaMAXTM (35050038, Thermo Fisher Scientific), […] gentamicin and 10% fetal bovine serum (FBS, F7524, Sigma Aldrich). All cells were incubated at 37 °C, 5% CO2 and 80% humidity. For infection with human cytomegalovirus (HCMV strain AD169), 2 × 10^5 HFFs were seeded in 12-well plates for 1 day (d) prior to infection at a multiplicity of infection (MOI) of 0.1. After 90 min of viral absorption, cells were incubated with peptides in the culture media media, which was supplemented with 2.5% FBS, 1× GlutaMAX^TM and 10 µg/mL gentamicin, at the indicated concentrations at 37 °C for 4–8 days. Viral supernatants were collected at 4, 6 and 8 days post-infection (d.p.i.).
HFFs were seeded in 12-well plates, used for HCMV infection at a MOI of 0.1 and treated with the indicated concentrations of each peptide. […] The supernatants were centrifuged at 1500× g and digested with proteinase K at 56 °C for 1 h to release viral particles. The reactions were stopped at 95 °C for 5 min. The amount of extracellular viral genomic loads was assessed in […] of each sample by real-time PCR (TaqMan-PCR). Two primers, namely 5′CMV ([…]) and 3′CMV ([…]), which anneal to a sequence within the major immediate early gene region of HCMV, were obtained to amplify and quantify the viral genome. In addition, a FAM/TAMRA-labeled probe was used for detection. The viral load of a sample treated with DMSO only served as a negative control. HCMV genome equivalents from peptide-treated viral supernatants were calculated as % of the negative control.

HFF cells = assay: Neutral Red cytotoxicity assay; assay type: cell-based, human; details: peptides 0.008 µM to 100 µM, refreshed on day 5, read on day 7 of peptide treatment
Method: HFF cells were cultivated in 96-well plate with a density of 1.35 × 10^4 cells per well and incubated at 37 °C for 24 h. The cultured HFF cells were treated with peptides, at concentrations ranging from 0.008 µM to 100 µM, and incubated at 37 °C. On day 5, peptides were refreshed in the culture media and incubation was continued until day 7. A sample without compound (DMSO) served as a negative control, and a sample with 1 µM staurosporine (STP) as a positive control. On day seven, neutral red solution (40 µg/mL, Sigma Aldrich, N2889) was added to cultivated cells and incubated at 37 °C for […], followed by addition of destaining solution (ethanol/water/acetic acid, 50:49:1). Fluorescence was read at excitation/emission at 560/630 nm to quantify the uptake of neutral red.

[1] = target: T1, HCMV pUL50–pUL53 interaction (Human cytomegalovirus, UniProt P16791); assay: pUL50-pUL53 inhibition assay (plate-based, anti-His-HRP detection); assay type: binding; details: peptide serial dilutions starting at 10 µM
T1 construct: Recombinant pUL50 and pUL53 were produced and purified as previously described; made in house
Method: Inhibition assay. Recombinant pUL50 and pUL53 were produced and purified as previously described. High binding Immulon microtiter plates were coated with 100 µL pUL53 (1 µg/mL) in sodium carbonate buffer pH 9.5, overnight at 4 °C. After blocking with 200 µL 1% BSA in 0.1 M phosphate buffer, pH 7.2, for two hours, plates were incubated with 50 µL peptide in serial dilutions, starting at 10 µM, together with 50 µL His-tagged pUL50 (0.78 µg/mL) for two and a half hours. His-tagged pUL50 was detected using anti-His-HRP (Merck, Darmstadt, Germany, 1:100,000). All proteins and antibodies were in 0.1 M phosphate buffer, pH 7.2, containing 0.1% BSA and 0.01% Tween 20. Plates were washed four times with 0.01% Tween 20 in 0.1 M phosphate buffer, pH 7.2, after each incubation step. Plates were developed with o-phenylenediamine (OPD) (1 mg/mL) in the presence of 0.03% H2O2 for approximately 5 min in the dark. After the reaction was stopped with 50 µL 2 M H2SO4, absorbance was read at 492 nm. IC50 values were determined from the % inhibition data using the program GraphPad. Inhibition was calculated according to the following formula:% Inhibition = [1 − (Asample − Ablank1)/(A100% − Ablank2)] × 100 in which “100%” is a sample without inhibitor, “blank1” is a sample without pUL53, and “blank2” is a sample without pUL53 and without inhibitor.

T1 sequence (P16791 1-175): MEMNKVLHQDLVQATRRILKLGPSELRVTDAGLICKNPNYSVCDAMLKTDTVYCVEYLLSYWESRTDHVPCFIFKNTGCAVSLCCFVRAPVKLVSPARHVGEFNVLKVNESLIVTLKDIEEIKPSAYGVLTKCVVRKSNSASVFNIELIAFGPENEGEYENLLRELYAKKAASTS

## CC[C@H](C)[C@H](NC(=O)[C@H](C)NC(=O)[C@H](CCSC)NC(=O)[C@H](CCCCN)NC(=O)[C@H](CCSC)NC(=O)[C@H](CCSC)NC(=O)[C@H](CC(N)=O)NC(=O)[C@H](CC(C)C)NC(=O)[C@H](Cc1ccc(O)cc1)NC(=O)[C@H](CCCCN)NC(=O)[C@H](CC(C)C)NC(=O)[C@H](CCC(=O)O)NC(=O)[C@H](CC(C)C)NC(=O)[C@H](CCC(=O)O)NC(=O)[C@@H]1CCCN1C(=O)[C@H](Cc1c[nH]cn1)NC(=O)[C@H](CCC(=O)O)NC(=O)[C@H](CCCNC(=N)N)NC(=O)[C@H](Cc1ccccc1)NC(=O)[C@@H](NC(=O)[C@H](CC(=O)O)NC(=O)[C@H](Cc1c[nH]cn1)NC(=O)[C@H](CC(C)C)NC(=O)[C@H](CC(=O)O)NC(=O)[C@H](Cc1c[nH]cn1)NC(=O)[C@H](CC(C)C)NC(=O)[C@@H](NC(=O)[C@H](CC(C)C)NC(C)=O)[C@@H](C)O)[C@@H](C)CC)C(=O)N[C@H](C(N)=O)[C@@H](C)O [Hook peptide]
HCMV AD169
  EC50: > 10 µM
  effect on HCMV infection (in words): no significant effect
HFF cells
  CC50, cytotoxic effect: >100 µM

## CC[C@H](C)[C@H](NC(=O)[C@H](C)NC(=O)[C@H](CCSC)NC(=O)[C@H](CCCCN)NC(=O)[C@H](CCSC)NC(=O)[C@H](CCSC)NC(=O)[C@H](CC(N)=O)NC(=O)[C@H](CC(C)C)NC(=O)[C@H](Cc1ccc(O)cc1)NC(=O)[C@H](CCCCN)NC(=O)[C@H](CC(C)C)NC(=O)[C@H](CCC(=O)O)NC(=O)[C@H](CC(C)C)NC(=O)[C@H](CCC(=O)O)NC(=O)[C@@H]1CCCN1C(=O)[C@H](Cc1c[nH]cn1)NC(=O)[C@H](CCC(=O)O)NC(=O)[C@H](CCCNC(=N)N)NC(=O)[C@H](Cc1ccccc1)NC(=O)[C@@H](NC(=O)[C@H](CC(=O)O)NC(=O)[C@H](Cc1c[nH]cn1)NC(=O)[C@H](CC(C)C)NC(=O)[C@H](CC(=O)O)NC(=O)[C@H](Cc1c[nH]cn1)NC(=O)[C@H](CC(C)C)NC(=O)[C@@H](NC(=O)[C@H](CC(C)C)NC(=O)COCCOCCNC(=O)[C@@H]1CCCN1C(=O)[C@@H]1CCCN1C(=O)[C@H](CCCNC(=N)N)NC(=O)[C@H](CCCNC(=N)N)NC(=O)[C@H](CCCNC(=N)N)NC(=O)[C@H](CCC(N)=O)NC(=O)[C@H](CCCNC(=N)N)NC(=O)[C@H](CCCNC(=N)N)NC(=O)[C@H](CCCCN)NC(=O)[C@H](CCCCN)NC(=O)[C@H](CCCNC(=N)N)NC(=O)CNC(=O)[C@H](Cc1ccc(O)cc1)NC(=O)COCCOCCNC(=O)[C@H](CCCNC(=N)N)NC(=O)[C@H](CCC(N)=O)NC(=O)[C@H](CCCNC(=N)N)NC(=O)[C@H](CCCNC(=N)N)NC(=O)[C@H](CCCCN)NC(=O)[C@H](CCCNC(=N)N)NC(=O)[C@H](CC(C)C)NC(=O)[C@H](CC(C)C)NC(=O)[C@H](CO)NC(=O)[C@H](CCCNC(=N)N)NC(C)=O)[C@@H](C)O)[C@@H](C)CC)C(=O)N[C@H](C(N)=O)[C@@H](C)O [NLS-CPP-Hook]
HCMV AD169
  EC50: 5.6 ± 0.78 µM
HFF cells
  CC50, cytotoxic effect: 44.2 ± 6.9 µM

## CC(=O)N[C@@H](CCCNC(=N)N)C(=O)N[C@@H](CO)C(=O)N[C@@H](CC(C)C)C(=O)N[C@@H](CC(C)C)C(=O)N[C@@H](CCCNC(=N)N)C(=O)N[C@@H](CCCCN)C(=O)N[C@@H](CCCNC(=N)N)C(=O)N[C@@H](CCCNC(=N)N)C(=O)N[C@@H](CCC(N)=O)C(=O)N[C@@H](CCCNC(=N)N)C(=O)NCCOCCOCC(=O)N[C@@H](Cc1ccc(O)cc1)C(=O)NCC(=O)N[C@@H](CCCNC(=N)N)C(=O)N[C@@H](CCCCN)C(=O)N[C@@H](CCCCN)C(=O)N[C@@H](CCCNC(=N)N)C(=O)N[C@@H](CCCNC(=N)N)C(=O)N[C@@H](CCC(N)=O)C(=O)N[C@@H](CCCNC(=N)N)C(=O)N[C@@H](CCCNC(=N)N)C(=O)N[C@@H](CCCNC(=N)N)C(=O)N1CCC[C@H]1C(=O)N1CCC[C@H]1C(N)=O [NLS-CPP]
HCMV AD169
  effect on HCMV infection (in words): no significant effect
[1]
  inhibitory effect on the pUL50-pUL53 interaction (in words): completely inactive
